What was measured:
P-S213 AR = P-S213 AR (Homo sapiens, UniProt P10275); conditions: 293 cells, wild type AR, treated with R1881; FIG. 3B
Protocol: Preparation of nuclear and cytoplasmic lysates: Nuclear and cytoplasmic lysates were prepared according to (Lee et al., 1988). Cells (1×10^6 cells) were collected by centrifugation, swelled in a hypotonic buffer, and lysed by extruding the cells through a 25-gauge hypodermic needle. This homogenate was then centrifuged at 14,000 rpm for 5 min to pellet the nuclei, and the supernatant was saved as the cytoplasmic fraction. The proteins were extracted by re-suspension of the nuclear pellet in a high salt buffer and separation of debris by centrifugation. The resulting supernatant was retained as the nuclear fraction.
To assess the subcellular localization of AR-P-S213, fractionation studies were conducted in the presence of R1881.

AR S213 phosphorylation = target: T1, AR S213 phosphorylation (Homo sapiens, UniProt P10275); assay: Immunoblot of AR S213 phosphorylation in 293 cells transfected with wild type AR; format: cell-based
T1 sequence (P10275 1-920): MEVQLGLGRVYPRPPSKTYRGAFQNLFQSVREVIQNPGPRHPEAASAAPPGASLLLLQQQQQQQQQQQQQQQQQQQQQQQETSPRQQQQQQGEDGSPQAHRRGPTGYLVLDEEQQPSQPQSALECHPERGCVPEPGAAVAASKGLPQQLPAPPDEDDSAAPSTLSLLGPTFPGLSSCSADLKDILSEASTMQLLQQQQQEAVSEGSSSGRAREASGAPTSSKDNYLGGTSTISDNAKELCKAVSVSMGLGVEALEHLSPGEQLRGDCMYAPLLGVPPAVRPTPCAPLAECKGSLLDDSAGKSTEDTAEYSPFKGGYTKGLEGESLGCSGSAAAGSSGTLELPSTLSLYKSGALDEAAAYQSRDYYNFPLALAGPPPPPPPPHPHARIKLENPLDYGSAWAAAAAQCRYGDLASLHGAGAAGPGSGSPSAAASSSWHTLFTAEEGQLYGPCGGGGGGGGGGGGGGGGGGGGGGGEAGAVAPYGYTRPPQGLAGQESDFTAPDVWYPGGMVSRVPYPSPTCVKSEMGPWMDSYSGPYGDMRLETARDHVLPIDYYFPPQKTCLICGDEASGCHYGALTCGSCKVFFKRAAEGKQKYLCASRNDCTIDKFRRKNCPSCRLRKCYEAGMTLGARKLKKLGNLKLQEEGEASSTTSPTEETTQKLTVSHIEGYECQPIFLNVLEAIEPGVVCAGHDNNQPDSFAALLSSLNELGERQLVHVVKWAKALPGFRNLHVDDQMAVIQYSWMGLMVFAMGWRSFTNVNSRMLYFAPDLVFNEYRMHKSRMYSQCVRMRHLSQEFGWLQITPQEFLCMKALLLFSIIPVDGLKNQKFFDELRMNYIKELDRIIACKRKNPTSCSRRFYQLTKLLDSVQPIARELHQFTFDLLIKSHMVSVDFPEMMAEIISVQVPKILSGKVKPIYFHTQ

phospho-MAPK (P-MAPK) = assay: Immunoblot of phospho-MAPK in transfected 293 cells; format: cell-based, human; conditions: 293 cells treated with IGF-1; FIG. 4B

## C[C@]1(O)CC[C@H]2[C@@H]3CCC4=CC(=O)CCC4=C3C=C[C@@]21C [R1881]
P-S213 AR
  Sub-cellular localization of P-S213 AR: predominantly nuclear
AR S213 phosphorylation
  AR S213 phosphorylation at 10 nM: robust phosphorylation
  AR S213 phosphorylation at lower levels: not at lower levels
  AR S213 phosphorylation, compound alone: phosphorylated
  AR phosphorylation by hormone: robust AR phosphorylation
  Earliest time at which phosphorylation may occur: ≥ 10 min
  Time at which phosphorylation above background is obvious: 60 min

## IGF-1: growth factor used to treat 293 cells; phosphorylates MAPK
phospho-MAPK (P-MAPK)
  MAPK phosphorylation: phosphorylated
AR S213 phosphorylation; 293 cells, IGF-1 alone 5 or 10 minutes or 2 hours, absence of R1881, FIG. 4B
  AR phosphorylation with IGF-1 alone: does not result in AR phosphorylation

Reference: patent US7160989B2, “Antibodies that recognize and bind phosphorylated human androgen receptor and methods of using same” (New York University, priority 2003, dated 2007)
